“And” between values parts separate entries of the source, which are not always exact repeats. Equal entries are not always repeated. Where two headings read alike, the source gives them in different places.
Key:
CDK12–cyclin K and DDB1 = biological target: T1, CDK12–cyclin K and DDB1 (Homo sapiens, UniProt Q16531+Q9NYV4, K965R); experiment: TR-FRET ternary complex formation assay (compound titration); type: binding; conditions: for TR-FRET signal at compound concentration: replicate titrations
T1 construct: His6–CDK12 (a.a. 713–1,052); full-length or beta-propeller B domain deletion (ΔBPB: a.a. 396–705 deleted) constructs of His6–DDB1ΔBPB, StrepII–Avi–DDB1, or His6–Spy–DDB1; made in house; host or cells: Trichoplusia ni High Five insect cells (baculovirus)
T1 sequence (Q9NYV4 713-1052 K965R): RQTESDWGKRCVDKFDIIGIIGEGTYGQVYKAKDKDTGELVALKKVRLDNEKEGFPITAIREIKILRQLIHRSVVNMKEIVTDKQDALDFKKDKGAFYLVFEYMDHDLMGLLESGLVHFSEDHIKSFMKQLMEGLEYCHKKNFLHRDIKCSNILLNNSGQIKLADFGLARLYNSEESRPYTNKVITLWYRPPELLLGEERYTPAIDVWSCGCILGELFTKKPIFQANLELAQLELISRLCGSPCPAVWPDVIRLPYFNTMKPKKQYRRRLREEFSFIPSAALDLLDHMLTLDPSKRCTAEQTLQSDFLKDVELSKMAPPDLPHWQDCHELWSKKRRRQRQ
T1 sequence (O75909 1-267 partner): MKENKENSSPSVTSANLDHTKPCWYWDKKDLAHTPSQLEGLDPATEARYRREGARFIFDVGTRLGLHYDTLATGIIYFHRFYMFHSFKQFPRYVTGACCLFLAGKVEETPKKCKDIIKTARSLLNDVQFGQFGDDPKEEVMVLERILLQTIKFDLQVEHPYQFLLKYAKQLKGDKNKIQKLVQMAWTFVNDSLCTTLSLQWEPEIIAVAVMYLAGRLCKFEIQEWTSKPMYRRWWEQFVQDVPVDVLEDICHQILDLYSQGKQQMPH
T1 sequence (Q16531 whole entry): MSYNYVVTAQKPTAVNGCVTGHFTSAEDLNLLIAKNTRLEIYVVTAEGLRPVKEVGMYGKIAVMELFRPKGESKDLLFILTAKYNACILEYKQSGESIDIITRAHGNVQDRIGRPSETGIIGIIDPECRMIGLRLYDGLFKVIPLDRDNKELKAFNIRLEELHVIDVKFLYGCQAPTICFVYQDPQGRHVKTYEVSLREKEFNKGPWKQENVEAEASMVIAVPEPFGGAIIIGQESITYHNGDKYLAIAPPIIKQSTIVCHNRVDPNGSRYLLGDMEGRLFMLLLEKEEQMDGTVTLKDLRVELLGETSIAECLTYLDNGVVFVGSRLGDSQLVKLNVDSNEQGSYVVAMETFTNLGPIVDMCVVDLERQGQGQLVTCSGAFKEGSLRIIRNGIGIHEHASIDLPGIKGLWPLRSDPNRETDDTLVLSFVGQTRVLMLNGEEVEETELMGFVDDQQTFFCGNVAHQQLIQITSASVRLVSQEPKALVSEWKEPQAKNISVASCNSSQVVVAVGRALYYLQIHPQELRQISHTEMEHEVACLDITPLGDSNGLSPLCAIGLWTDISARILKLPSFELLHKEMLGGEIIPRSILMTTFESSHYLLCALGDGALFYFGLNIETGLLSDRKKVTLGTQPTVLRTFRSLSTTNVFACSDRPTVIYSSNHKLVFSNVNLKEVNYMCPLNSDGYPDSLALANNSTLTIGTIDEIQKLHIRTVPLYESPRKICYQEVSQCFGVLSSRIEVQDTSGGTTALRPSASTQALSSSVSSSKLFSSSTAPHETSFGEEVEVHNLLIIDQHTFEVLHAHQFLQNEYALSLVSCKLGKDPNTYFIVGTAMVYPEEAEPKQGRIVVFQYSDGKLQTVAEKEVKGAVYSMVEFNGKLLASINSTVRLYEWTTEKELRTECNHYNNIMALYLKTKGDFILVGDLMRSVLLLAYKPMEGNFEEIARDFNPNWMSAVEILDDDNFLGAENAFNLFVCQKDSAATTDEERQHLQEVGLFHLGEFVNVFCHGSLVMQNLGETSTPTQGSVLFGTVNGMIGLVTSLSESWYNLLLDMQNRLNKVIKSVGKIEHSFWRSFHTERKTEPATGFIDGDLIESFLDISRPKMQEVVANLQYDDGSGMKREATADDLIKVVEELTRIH
Method in brief: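 Signal was the ratio of 520 nm to 490 nm fluorescence, measured after a 70 μs delay that reduced background.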

[1] = test system: cyclin K–eGFP degradation reporter; experiment: Cyclin K reporter stability analysis (dual-color cyclin K–eGFP reporter); type: cell-based, human
Method in brief: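 Readout was the eGFP-to-mCherry geometric-mean ratio by flow cytometry, normalized to three DMSO controls, after 5 h drug exposure. Cells used were HEK293T–Cas9 expressing the dual-colour cyclin K–eGFP degradation reporter.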

HEK293T cells = experiment: Drug sensitivity assay (CellTiter-Glo viability) with or without MLN4924 pretreatment; type: cell-based, human; conditions: for EC50: Homo sapiens, HEK-293T, HEK293T viability, 72 h, compound alone, read-out: Cellular assays EC50; for EC50 / Toxicity rescue: Supplementary Table 2; for Toxicity rescue: MLN4924-mediated cytotoxicity rescue, 10 µM used where n.d.
Method in brief: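 HEK293T–Cas9, 0.15 × 10^6 ml^−1; pretreat DMSO vs 100 nM MLN4924; drugs dispensed after 2 h; 3 d exposure; CellTiter-Glo; viability vs DMSO control.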

[2] = compound concentration 0.468 nM
[3] = compound concentration 7.92001 nM
[4] = compound concentration 15.84 nM
[5] = compound concentration 30.96 nM
[6] = compound concentration 62.6401 nM
[7] = compound concentration 125.28 nM
[8] = compound concentration 244.8 nM
[9] = compound concentration 993.601 nM
[10] = compound concentration 2001.6 nM
[11] = in vitro complex formation, 50 nM CDK12–cyclin K, 100 nM DDB1, text and figures, read-out: TR-FRET EC50
[12] = sheet MOESM7, read-out: log TR-FRET EC50 (converted)
[13] = source data sheet correlations, read-out: TR-FRET EC50
[14] = source data sheet correlations, read-out: DC50
[15] = Supplementary Table 2, HEK293T cycK-eGFP reporter, 5 h, read-out: Cellular assays DC50

Compound | TR-FRET signal at compound concentration (CDK12–cyclin K and DDB1; [2]) | TR-FRET signal at compound concentration (CDK12–cyclin K and DDB1; compound concentration 2.16 nM) | TR-FRET signal at compound concentration (CDK12–cyclin K and DDB1; compound concentration 3.6 nM) | TR-FRET signal at compound concentration (CDK12–cyclin K and DDB1; [3]) | TR-FRET signal at compound concentration (CDK12–cyclin K and DDB1; [4]) | TR-FRET signal at compound concentration (CDK12–cyclin K and DDB1; [5]) | TR-FRET signal at compound concentration (CDK12–cyclin K and DDB1; [6]) | TR-FRET signal at compound concentration (CDK12–cyclin K and DDB1; [7]) | TR-FRET signal at compound concentration (CDK12–cyclin K and DDB1; [8]) | TR-FRET signal at compound concentration (CDK12–cyclin K and DDB1; [9]) | TR-FRET signal at compound concentration (CDK12–cyclin K and DDB1; [10]) | EC50 (CDK12–cyclin K and DDB1; [11]) | EC50 (CDK12–cyclin K and DDB1; [12]) | EC50 (CDK12–cyclin K and DDB1; [13]) | DC50 [1, 14] | DC50 [1, 15] | EC50 (HEK293T cells) | Toxicity rescue (HEK293T cells) | also measured
CC[C@H](CO)Nc1nc(NCCCc2ccncc2)c2ncn(C(C)C)c2n1 [DS27] | – | – | – | – | – | – | – | – | – | – | – | 456 ± 34 nM | – | – | – | > 10000 nM | > 10000 nM | 0% | TR-FRET signal at compound concentration (CDK12–cyclin K and DDB1; compound concentration 4.68 nM): 0.135 and 0.1336; TR-FRET signal at compound concentration (CDK12–cyclin K and DDB1; compound concentration 21.6 nM): 0.1436 and 0.1394; TR-FRET signal at compound concentration (CDK12–cyclin K and DDB1; compound concentration 36 nM): 0.1546 and 0.1561; TR-FRET signal at compound concentration (CDK12–cyclin K and DDB1; compound concentration 79.2001 nM): 0.1838 and 0.187; TR-FRET signal at compound concentration (CDK12–cyclin K and DDB1; compound concentration 158.4 nM): 0.2226 and 0.2249; TR-FRET signal at compound concentration (CDK12–cyclin K and DDB1; compound concentration 309.6 nM): 0.2777 and 0.285; TR-FRET signal at compound concentration (CDK12–cyclin K and DDB1; compound concentration 626.401 nM): 0.3467 and 0.3568; TR-FRET signal at compound concentration (CDK12–cyclin K and DDB1; compound concentration 1252.8 nM): 0.4111 and 0.4466; TR-FRET signal at compound concentration (CDK12–cyclin K and DDB1; compound concentration 2448 nM): 0.4906 and 0.4799; TR-FRET signal at compound concentration (CDK12–cyclin K and DDB1; compound concentration 9936.01 nM): 0.5278 and 0.4844; TR-FRET signal at compound concentration (CDK12–cyclin K and DDB1; compound concentration 20016 nM): 0.4733 and 0.5319
CC[C@@H](CO)Nc1nc(NCc2ccc(-c3ccccn3)cc2)c2ncn(C(C)C)c2n1 [DS28, reference compound] | – | – | – | – | – | – | – | – | – | – | – | – | – | – | 27 nM | – | 221 nM | 610% | TR-FRET signal at compound concentration 0.468 nM (CDK12–cyclin K and DDB1; compound concentration 0.468 nM, raw titration data): 0.2434 and 0.2416 and 0.2052; TR-FRET signal at compound concentration 2.16 nM (CDK12–cyclin K and DDB1; compound concentration 2.16 nM, raw titration data): 0.3117 and 0.3133 and 0.2621; TR-FRET signal at compound concentration 3.6 nM (CDK12–cyclin K and DDB1; compound concentration 3.6 nM, raw titration data): 0.4303 and 0.4364 and 0.3629; TR-FRET signal at compound concentration 7.92001 nM (CDK12–cyclin K and DDB1; compound concentration 7.92001 nM, raw titration data): 0.6777 and 0.6662 and 0.6266; TR-FRET signal at compound concentration 15.84 nM (CDK12–cyclin K and DDB1; compound concentration 15.84 nM, raw titration data): 1.124 and 1.123 and 1.094; TR-FRET signal at compound concentration 30.96 nM (CDK12–cyclin K and DDB1; compound concentration 30.96 nM, raw titration data): 2.005 and 1.92 and 1.844; TR-FRET signal at compound concentration 62.6401 nM (CDK12–cyclin K and DDB1; compound concentration 62.6401 nM, raw titration data): 3.017 and 2.942 and 2.921; TR-FRET signal at compound concentration 125.28 nM (CDK12–cyclin K and DDB1; compound concentration 125.28 nM, raw titration data): 3.528 and 3.596 and 3.608; TR-FRET signal at compound concentration 244.8 nM (CDK12–cyclin K and DDB1; compound concentration 244.8 nM, raw titration data): 3.609 and 3.755 and 3.8349; TR-FRET signal at compound concentration 993.601 nM (CDK12–cyclin K and DDB1; compound concentration 993.601 nM, raw titration data): 3.693 and 3.913 and 3.885; TR-FRET signal at compound concentration 2001.6 nM (CDK12–cyclin K and DDB1; compound concentration 2001.6 nM, raw titration data): 3.507 and 3.702 and 3.683

Continued, in another order:

TR-FRET signal at compound concentration (CDK12–cyclin K and DDB1; [2]) | TR-FRET signal at compound concentration (CDK12–cyclin K and DDB1; compound concentration 2.16 nM) | TR-FRET signal at compound concentration (CDK12–cyclin K and DDB1; compound concentration 3.6 nM) | TR-FRET signal at compound concentration (CDK12–cyclin K and DDB1; [3]) | TR-FRET signal at compound concentration (CDK12–cyclin K and DDB1; [4]) | TR-FRET signal at compound concentration (CDK12–cyclin K and DDB1; [5]) | TR-FRET signal at compound concentration (CDK12–cyclin K and DDB1; [6]) | TR-FRET signal at compound concentration (CDK12–cyclin K and DDB1; [7]) | TR-FRET signal at compound concentration (CDK12–cyclin K and DDB1; [8]) | TR-FRET signal at compound concentration (CDK12–cyclin K and DDB1; [9]) | TR-FRET signal at compound concentration (CDK12–cyclin K and DDB1; [10]) | EC50 (CDK12–cyclin K and DDB1; [11]) | EC50 (CDK12–cyclin K and DDB1; [12]) | EC50 (CDK12–cyclin K and DDB1; [13]) | DC50 [1, 14] | DC50 [1, 15] | Compound | EC50 (HEK293T cells) | Toxicity rescue (HEK293T cells) | also measured
0.1746 and 0.2408 | 0.2584 and 0.2684 | 0.3148 and 0.3094 | 0.4213 and 0.4118 | 0.6123 and 0.5731 | 1.004 and 0.9206 | 1.811 and 1.633 | 2.96 and 2.707 | 3.542 and 3.534 | 3.814 and 3.947 | 3.863 and 4.055 | 78 ± 2 nM | 78.2 nM | 78.2 nM | 172 nM | – | CC[C@H](CO)Nc1nc(NCc2ccc(-c3ccccn3)c(F)c2)c2ncn(C(C)C)c2n1 [DS24] | 794 nM | 270% | –
0.2617 and 0.2677 | 0.4243 and 0.428 | 0.7393 and 0.7415 | 1.2835 and 1.267 | 1.9468 and 1.95 | 2.593 and 2.662 | 3.101 and 3.186 | 3.361 and 3.544 | 3.469 and 3.727 | 3.278 and 3.742 | 3.339 and 3.592 | 15 ± 1 nM | – | – | – | 90 nM | CC[C@H](CO)Nc1nc(NCc2ccc(-c3ccc(C)s3)cc2)c2ncn(C(C)C)c2n1 [DS25] | 267 nM | 795% | EC50 (CDK12–cyclin K and DDB1; Supplementary Table 2, read-out: TR-FRET EC50 TR-FRET): 15 nM
0.256 and 0.2516 | 0.3133 and 0.3182 | 0.4047 and 0.4311 | 0.6615 and 0.6381 | 1.045 and 0.9914 | 1.635 and 1.536 | 2.287 and 2.228 | 2.838 and 2.826 | 3.127 and 3.261 | 3.39 and 3.672 | 3.566 and 3.699 | 46 ± 2 nM | 45.7 nM | 45.7 nM | 253 nM | – | CC[C@H](CO)Nc1nc(NCCCc2cccc(F)c2)c2ncn(C(C)C)c2n1 [DS29] | 452 nM | 713% | % MLN4924 rescue (HEK293T cells; PCA input): 669%
